Data on 5 cell lines can be found in the supplement of paper PMC10307832.

Assay in all cases: relative viability (nuclei count vs DMSO), 5 days (fraction); higher = more cells survive
Compound in experiment [1]: CC(C)(C)c1cc(NC(=O)Nc2ccc(-c3cn4c(n3)sc3cc(OCCN5CCOCC5)ccc34)cc2)no1 [Quizartinib] + O=C(CCCCCCC(=O)Nc1ccccc1)NO [Vorinostat] (partner 1 µM)
In a few lines: (§1)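 Relative viability equals treated-well nuclei counts divided by vehicle-well nuclei counts. Counts came from 4× images of lung cancer cell lines grown in 1536-well plates for 5 days after pin-tool dosing on the day after seeding. Dosing used one drug alone or a fixed anchor-drug dose plus five library-drug doses (not always all listed) in √10 steps, and values are medians of duplicate plates.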

Compound in experiment [2]: CC(C)(C)c1cc(NC(=O)Nc2ccc(-c3cn4c(n3)sc3cc(OCCN5CCOCC5)ccc34)cc2)no1 [Quizartinib] + Nc1ncn([C@H]2C[C@H](O)[C@@H](CO)O2)c(=O)n1 [Decitabine] (partner 2 µM)
Summed up:
as §1

Compound in experiment [3]: COCC[n+]1c2c(n(Cc3cnccn3)c1C)C(=O)c1ccccc1C2=O [YM155] + Cc1nc(NC(=O)N2CCC[C@H]2C(N)=O)sc1-c1ccnc(C(C)(C)C(F)(F)F)c1 [Alpelisib] (partner 2 µM)
In a few lines:
as §1

Compound in experiment [4]: COCC[n+]1c2c(n(Cc3cnccn3)c1C)C(=O)c1ccccc1C2=O [YM155] + CS(=O)(=O)CCNCc1ccc(-c2ccc3ncnc(Nc4ccc(OCc5cccc(F)c5)c(Cl)c4)c3c2)o1 [Lapatinib] (partner 2 µM)
In a few lines:
as §1

As for NCI-H23, the relative viability in experiment [1] (first compound 0.001 µM) is 0.576; in experiment [1] (first compound 0.003162 µM), 0.6; in experiment [1] (first compound 0.01 µM), 0.545; in experiment [1] (first compound 0.03162 µM), 0.593; in experiment [1] (first compound 0.1 µM), 0.649; in experiment [2] (first compound 0.001 µM), 0.267. In addition, the relative viability in experiment [2] (first compound 0.003162 µM) amounted to 0.266; in experiment [2] (first compound 0.01 µM), 0.33; in experiment [2] (first compound 0.03162 µM) it was 0.278; in experiment [2] (first compound 0.1 µM), 0.317; in experiment [3] (first compound 0.002 µM), 0.707; in experiment [3] (first compound 0.006325 µM), 0.669. Moreover, the relative viability was found to be 0.71 in experiment [3] (first compound 0.02 µM); 0.271 in experiment [3] (first compound 0.06325 µM); 0.877 in experiment [4] (first compound 0.002 µM); 1.09 in experiment [4] (first compound 0.006325 µM); 0.736 in experiment [4] (first compound 0.02 µM); 0.313 in experiment [4] (first compound 0.06325 µM).

As to NCI-H322M, the relative viability in experiment [1] (first compound 0.001 µM) came to 0.867; in experiment [1] (first compound 0.003162 µM), 0.842; in experiment [1] (first compound 0.01 µM), 0.836; in experiment [1] (first compound 0.03162 µM) it was 0.878; in experiment [1] (first compound 0.1 µM), 0.903; in experiment [2] (first compound 0.001 µM) it was 0.685. Moreover, the relative viability in experiment [2] (first compound 0.003162 µM) was 0.653; in experiment [2] (first compound 0.01 µM) it was 0.681; in experiment [2] (first compound 0.03162 µM) it was 0.72; in experiment [2] (first compound 0.1 µM), 0.763; in experiment [3] (first compound 0.002 µM) it was 0.762; in experiment [3] (first compound 0.006325 µM) it was 0.878. In addition, the relative viability in experiment [3] (first compound 0.02 µM) came to 0.666; in experiment [3] (first compound 0.06325 µM), 0.732; in experiment [4] (first compound 0.002 µM), 0.601; in experiment [4] (first compound 0.006325 µM) it was 0.628; in experiment [4] (first compound 0.02 µM) it was 0.509; in experiment [4] (first compound 0.06325 µM), 0.585.

NCI-H358: the relative viability amounted to 0.733 in experiment [1] (first compound 0.001 µM); 0.572 in experiment [1] (first compound 0.003162 µM); 0.803 in experiment [1] (first compound 0.01 µM); 0.815 in experiment [1] (first compound 0.1 µM); 0.194 in experiment [2] (first compound 0.001 µM); 0.209 in experiment [2] (first compound 0.003162 µM). Further, the relative viability amounted to 0.232 in experiment [2] (first compound 0.01 µM); 0.192 in experiment [2] (first compound 0.1 µM); 0.801 in experiment [3] (first compound 0.002 µM); 0.871 in experiment [3] (first compound 0.006325 µM); 0.911 in experiment [3] (first compound 0.02 µM); 0.283 in experiment [3] (first compound 0.06325 µM). Besides, the relative viability was 0.326 in experiment [4] (first compound 0.002 µM), 0.447 in experiment [4] (first compound 0.006325 µM), 0.344 in experiment [4] (first compound 0.02 µM) and 0.199 in experiment [4] (first compound 0.06325 µM).

For NCI-H441, the relative viability in experiment [1] (first compound 0.001 µM) turned out to be 0.755; in experiment [1] (first compound 0.003162 µM), 0.683; in experiment [1] (first compound 0.01 µM), 0.972; in experiment [1] (first compound 0.03162 µM), 0.595; in experiment [1] (first compound 0.1 µM) it was 0.834; in experiment [2] (first compound 0.001 µM), 0.236. The relative viability in experiment [2] (first compound 0.003162 µM) stood at 0.247; in experiment [2] (first compound 0.01 µM), 0.213; in experiment [2] (first compound 0.03162 µM), 0.238; in experiment [2] (first compound 0.1 µM) it was 0.278; in experiment [3] (first compound 0.002 µM) it was 0.733; in experiment [3] (first compound 0.006325 µM), 0.644. Also, the results for the relative viability in experiment [3] (first compound 0.02 µM) and in experiment [3] (first compound 0.06325 µM) were 0.567 and 0.429, respectively.

Regarding NCI-H522, the relative viability in experiment [1] (first compound 0.001 µM) was 0.803; in experiment [1] (first compound 0.003162 µM), 0.849; in experiment [1] (first compound 0.01 µM), 0.818; in experiment [1] (first compound 0.03162 µM), 0.874; in experiment [1] (first compound 0.1 µM), 0.834; in experiment [2] (first compound 0.001 µM), 0.684. Also, the relative viability came to 0.7 in experiment [2] (first compound 0.003162 µM), 0.67 in experiment [2] (first compound 0.01 µM), 0.603 in experiment [2] (first compound 0.03162 µM) and 0.618 in experiment [2] (first compound 0.1 µM).
